Literature values in patent US7700588B2, “Pharmaceutical compositions comprising midazolam in a high concentration” (priority 2004, dated 2010).
Like-named read-outs stand apart in the source and are kept apart here.

Tests used:
[1] = for mean absolute bioavailability: injection solutions
[2] = not given; remark: listed apart in the source
[3] = nasal 0.2 mg/kg
[4] = test system: intestinal drug efflux transporter; conditions: orally delivered
[5] = free base, pH 7.5
[6] = after nasal administration, 0.2 to 0.25 mg/kg
[7] = commercial intravenous solutions 5 mg/ml, pH 3.3 to 3.5

## Cc1ncc2n1-c1ccc(Cl)cc1C(c1ccccc1F)=NC2 [midazolam]
[1]; [6]
  time for which therapeutically effective plasma concentrations are maintained: about 1 hour
  time until therapeutically effective plasma concentrations are manifest: 3 min
[1]; intranasal
  time to maximum plasma concentrations: 5 to 15 min
[1]; intranasal, adult surgical patients
  mean absolute bioavailability: 83%
[1]; intranasal, children
  mean absolute bioavailability: 50%
[1]; intranasal, healthy volunteers
  mean absolute bioavailability: 55%
[7]
  share in the ring-closed form: 80-85%
  share in the ring-open form: 15-20%
pH increased to 7.4
  state of the ring when pH is increased: completely closed
[2]; intranasal, children and adults
  onset of action: about 10 minutes
[2]; nasal 0.2 mg/kg
  clinical effect in children undergoing diagnostic and minor surgical procedures: sedative and anxiolytic effects
  effect on seizures and EEG in epileptic children: suppresses acute seizures and improves the EEG background
[3]
  side effects in children: none of the children had clinical signs of respiratory depression, bradycardia or other side effects
[4]
  transporter substrate: substrate for the intestinal drug efflux transporter
[5]
  partition coefficient between octanol and phosphate buffer: about 475
